Assay results reported in the NIST ThermoML archive (doi:10.1016/j.jct.2017.03.026).
Where “and” joins values, the source holds several entries; their conditions need not be identical. Equal values may be shown once.

Experiment: molar heat capacity at constant pressure
Settings: 101.33 kPa, Crystal, Small (less than 1 g) adiabatic calorimetry

O.O.O.O.O.O=S(=O)([O-])[O-].[Cu+2] [copper(II) sulfate pentahydrate]
Settings | molar heat capacity at constant pressure
147.86 K | 165.08 J/K/mol
148.14 K | 163.74 J/K/mol
148.35 K | 165.5 J/K/mol
148.79 K | 165.6 J/K/mol
148.94 K | 165.94 J/K/mol
149.18 K | 164.71 J/K/mol
149.89 K | 165.56 J/K/mol
150 K | 165.6 J/K/mol
150.02 K | 166.77 J/K/mol
150.23 K | 165.8 J/K/mol
150.52 K | 166.26 J/K/mol
150.77 K | 167.63 J/K/mol
151.09 K | 168 J/K/mol
151.27 K | 167.02 J/K/mol
151.52 K | 168.7 J/K/mol
151.97 K | 167.63 J/K/mol
152.1 K | 169 J/K/mol
152.17 K | 169.13 J/K/mol
152.32 K | 167.82 J/K/mol
153.24 K | 170.02 J/K/mol
153.38 K | 169.02 J/K/mol
153.43 K | 170.11 J/K/mol
153.64 K | 169.31 J/K/mol
154.06 K | 169.63 J/K/mol
154.32 K | 171.06 J/K/mol
154.42 K | 169.98 J/K/mol
154.7 K | 171.74 J/K/mol
154.77 K | 171.25 J/K/mol
155.4 K | 172.12 J/K/mol
155.47 K | 171.07 J/K/mol
156.1 K | 172.57 J/K/mol
156.15 K | 171.68 J/K/mol
156.48 K | 173.12 J/K/mol
156.52 K | 172.03 J/K/mol
156.76 K | 172.32 J/K/mol
157.44 K | 173.97 J/K/mol
157.56 K | 174.08 J/K/mol
157.57 K | 172.98 J/K/mol
157.89 K | 174.79 J/K/mol
158.24 K | 173.62 J/K/mol
158.61 K | 173.88 J/K/mol
158.64 K | 175.11 J/K/mol
158.78 K | 175.17 J/K/mol
159.66 K | 174.82 J/K/mol
159.72 K | 176.1 J/K/mol
159.88 K | 175.23 J/K/mol
160 K | 175.2 J/K/mol
160.11 K | 176.48 J/K/mol
160.32 K | 175.83 J/K/mol
160.71 K | 175.82 J/K/mol
160.81 K | 177.05 J/K/mol
161.09 K | 177.82 J/K/mol
161.48 K | 177.68 J/K/mol
161.75 K | 176.91 J/K/mol
161.89 K | 178.2 J/K/mol
162.41 K | 177.56 J/K/mol
162.8 K | 177.97 J/K/mol
162.82 K | 178.9 J/K/mol
163 K | 179.4 J/K/mol
163.01 K | 178.38 J/K/mol
163.85 K | 178.9 J/K/mol
164.09 K | 180.26 J/K/mol
164.16 K | 180.28 J/K/mol
164.29 K | 180.86 J/K/mol
164.49 K | 179.69 J/K/mol
164.89 K | 179.88 J/K/mol
165.17 K | 181.13 J/K/mol
165.49 K | 181.52 J/K/mol
165.94 K | 180.9 J/K/mol
166.13 K | 181.26 J/K/mol
166.26 K | 182.01 J/K/mol
166.58 K | 181.3 J/K/mol
166.83 K | 182.73 J/K/mol
166.99 K | 181.72 J/K/mol
167.35 K | 183.04 J/K/mol
167.49 K | 183.69 J/K/mol
168.03 K | 182.66 J/K/mol
168.17 K | 183.76 J/K/mol
168.44 K | 184.44 J/K/mol
168.67 K | 183.22 J/K/mol
169.08 K | 183.64 J/K/mol
169.26 K | 184.18 J/K/mol
169.5 K | 184.87 J/K/mol
169.53 K | 185.06 J/K/mol
170 K | 184.5 J/K/mol
170.13 K | 184.56 J/K/mol
170.62 K | 186.24 J/K/mol
170.71 K | 186.66 J/K/mol
170.76 K | 185.15 J/K/mol
170.84 K | 186.28 J/K/mol
171.17 K | 185.59 J/K/mol
171.71 K | 187.47 J/K/mol
172.18 K | 187.68 J/K/mol
172.38 K | 187.03 J/K/mol
172.8 K | 188.14 J/K/mol
172.85 K | 187.26 J/K/mol
173.51 K | 188.79 J/K/mol
173.89 K | 188.9 J/K/mol
173.93 K | 189.4 J/K/mol
174.85 K | 189.91 J/K/mol
174.95 K | 188.94 J/K/mol
174.98 K | 190 J/K/mol
175.51 K | 189.78 J/K/mol
176.07 K | 191.28 J/K/mol
176.18 K | 191.23 J/K/mol
177.04 K | 190.61 J/K/mol
177.15 K | 192.53 J/K/mol
177.16 K | 191.97 J/K/mol
177.52 K | 192.4 J/K/mol
178.25 K | 192.97 J/K/mol
178.63 K | 192.28 J/K/mol
178.85 K | 193.69 J/K/mol
179.13 K | 192.37 J/K/mol
179.35 K | 194.03 J/K/mol
180 K | 193.2 J/K/mol
180.19 K | 194.75 J/K/mol
180.42 K | 195.75 J/K/mol
180.47 K | 195.63 J/K/mol
181.21 K | 194.29 J/K/mol
181.52 K | 196.05 J/K/mol
181.57 K | 196.1 J/K/mol
181.75 K | 194.99 J/K/mol
182.67 K | 197.05 J/K/mol
182.89 K | 197.45 J/K/mol
183.3 K | 195.97 J/K/mol
183.65 K | 198.96 J/K/mol
183.77 K | 198.41 J/K/mol
184.23 K | 198.67 J/K/mol
184.86 K | 199.51 J/K/mol
184.87 K | 197.91 J/K/mol
185.39 K | 197.77 J/K/mol
185.55 K | 200.51 J/K/mol
185.95 K | 200.62 J/K/mol
186.89 K | 201.62 J/K/mol and 202.38 J/K/mol
187.05 K | 201.82 J/K/mol
187.48 K | 199.99 J/K/mol
187.99 K | 200.27 J/K/mol
188.14 K | 203.75 J/K/mol
188.22 K | 203.53 J/K/mol
189.25 K | 204.46 J/K/mol
189.56 K | 204.62 J/K/mol
189.57 K | 201.44 J/K/mol
190 K | 201.9 J/K/mol
190.12 K | 206.13 J/K/mol
190.35 K | 205.41 J/K/mol
190.88 K | 206.97 J/K/mol
191.11 K | 202.91 J/K/mol
191.45 K | 206.67 J/K/mol
191.66 K | 203.21 J/K/mol
192.21 K | 207.95 J/K/mol
192.55 K | 207.97 J/K/mol
193.37 K | 209.23 J/K/mol
193.55 K | 208.35 J/K/mol
193.65 K | 208.94 J/K/mol
193.74 K | 205.3 J/K/mol
194.23 K | 206.14 J/K/mol
194.75 K | 209.89 J/K/mol
194.87 K | 210.1 J/K/mol
195.83 K | 207.12 J/K/mol
